Measurements from article PMC9014845 (Clinical cancer research : an official journal of the …, 2019).

Test system: patients with advanced solid tumors harboring FGFR1–3 gene alterations
Experiment: Phase I dose-escalation: safety/tolerability
Format: in vivo, human

Debio 1347
TEAE: Back pain (150 mg (n=3), all grades): 1 (33) Number (%) of patients
TEAE: Blurred vision (150 mg (n=3), all grades): 0 Number (%) of patients
TEAE: Constipation (150 mg (n=3), all grades): 1 (33) Number (%) of patients
TEAE: Creatinine increased (in blood) (150 mg (n=3), all grades): 0 Number (%) of patients
TEAE: Decreased appetite (150 mg (n=3), all grades): 1 (33) Number (%) of patients
TEAE: Diarrhea (150 mg (n=3), all grades): 1 (33) Number (%) of patients
TEAE: Dry eye (150 mg (n=3), all grades): 1 (33) Number (%) of patients
TEAE: Dry mouth (150 mg (n=3), all grades): 1 (33) Number (%) of patients
TEAE: Dry skin (150 mg (n=3), all grades): 1 (33) Number (%) of patients
TEAE: Dysgeusia (150 mg (n=3), all grades): 2 (67) Number (%) of patients
TEAE: Dyspnea (150 mg (n=3), all grades): 1 (33) Number (%) of patients
TEAE: Edema peripheral (150 mg (n=3), all grades): 1 (33) Number (%) of patients
TEAE: Fatigue (150 mg (n=3), all grades): 0 Number (%) of patients
TEAE: Hyperphosphatemia (150 mg (n=3), all grades): 3 (100) Number (%) of patients
TEAE: Hypertension (150 mg (n=3), all grades): 0 Number (%) of patients
TEAE: Hypokalemia (150 mg (n=3), all grades): 0 Number (%) of patients
TEAE: Hypomagnesemia (150 mg (n=3), all grades): 0 Number (%) of patients
TEAE: Mucosal inflammation (150 mg (n=3), all grades): 1 (33) Number (%) of patients
TEAE: Myalgia (150 mg (n=3), all grades): 0 Number (%) of patients
TEAE: Nail changes (150 mg (n=3), all grades): 3 (100) Number (%) of patients
TEAE: Nausea (150 mg (n=3), all grades): 2 (67) Number (%) of patients
TEAE: Stomatitis (150 mg (n=3), all grades): 1 (33) Number (%) of patients
TEAE: Vomiting (150 mg (n=3), all grades): 1 (33) Number (%) of patients
Patients requiring dose reduction (60 and 80 mg): 20%
Any TEAE (all doses (n=58), all grades): 58 (100%) Number (%) of patients
Any TEAE leading to discontinuation (all doses (n=58), all grades): 7 (12.1) Number (%) of patients
Any TEAE leading to dose reduction (all doses (n=58), all grades): 13 (22.4) Number (%) of patients
Any TEAE leading to treatment interruption (all doses (n=58), all grades): 26 (44.8) Number (%) of patients
Serious TEAE (all doses (n=58), all grades): 20 (34.5) Number (%) of patients
TEAE: ALT increased (all doses (n=58), all grades): 6 (10) Number (%) of patients
TEAE: AST increased (all doses (n=58), all grades): 6 (10) Number (%) of patients
TEAE: Abdominal pain (all doses (n=58), all grades): 12 (21) Number (%) of patients
TEAE: Alopecia (all doses (n=58), all grades): 11 (19) Number (%) of patients
TEAE: Anemia (all doses (n=58), all grades): 12 (21) Number (%) of patients
TEAE: Back pain (all doses (n=58), all grades): 9 (16) Number (%) of patients
TEAE: Blurred vision (all doses (n=58), all grades): 6 (10) Number (%) of patients
TEAE: Constipation (all doses (n=58), all grades): 19 (33) Number (%) of patients
TEAE: Creatinine increased (in blood) (all doses (n=58), all grades): 8 (14) Number (%) of patients
TEAE: Decreased appetite (all doses (n=58), all grades): 18 (31) Number (%) of patients
TEAE: Diarrhea (all doses (n=58), all grades): 24 (41) Number (%) of patients
TEAE: Dry eye (all doses (n=58), all grades): 8 (14) Number (%) of patients
TEAE: Dry mouth (all doses (n=58), all grades): 15 (26) Number (%) of patients
TEAE: Dry skin (all doses (n=58), all grades): 10 (17) Number (%) of patients
TEAE: Dysgeusia (all doses (n=58), all grades): 10 (17) Number (%) of patients
TEAE: Dyspnea (all doses (n=58), all grades): 12 (21) Number (%) of patients
TEAE: Edema peripheral (all doses (n=58), all grades): 8 (14) Number (%) of patients
TEAE: Fatigue (all doses (n=58), all grades): 22 (38) Number (%) of patients
TEAE: Hyperphosphatemia (all doses (n=58), all grades): 44 (76) Number (%) of patients
TEAE: Hypertension (all doses (n=58), all grades): 7 (12) Number (%) of patients
TEAE: Hypokalemia (all doses (n=58), all grades): 8 (14) Number (%) of patients
TEAE: Hypomagnesemia (all doses (n=58), all grades): 7 (12) Number (%) of patients
TEAE: Mucosal inflammation (all doses (n=58), all grades): 8 (14) Number (%) of patients
TEAE: Myalgia (all doses (n=58), all grades): 12 (21) Number (%) of patients
TEAE: Nail changes (all doses (n=58), all grades): 17 (29) Number (%) of patients
TEAE: Nausea (all doses (n=58), all grades): 23 (40) Number (%) of patients
TEAE: Stomatitis (all doses (n=58), all grades): 12 (21) Number (%) of patients
TEAE: Vomiting (all doses (n=58), all grades): 11 (19) Number (%) of patients
Any TEAE (all doses (n=58), grade ≥3): 37 (64%) Number (%) of patients
TEAE: ALT increased (all doses (n=58), grade ≥3): 2 (3) Number (%) of patients
TEAE: AST increased (all doses (n=58), grade ≥3): 1 (2) Number (%) of patients
TEAE: Abdominal pain (all doses (n=58), grade ≥3): 1 (2) Number (%) of patients
TEAE: Alopecia (all doses (n=58), grade ≥3): 0 Number (%) of patients
TEAE: Anemia (all doses (n=58), grade ≥3): 7 (12) Number (%) of patients
TEAE: Back pain (all doses (n=58), grade ≥3): 1 (2) Number (%) of patients
TEAE: Blurred vision (all doses (n=58), grade ≥3): 0 Number (%) of patients
TEAE: Constipation (all doses (n=58), grade ≥3): 1 (2) Number (%) of patients
TEAE: Creatinine increased (in blood) (all doses (n=58), grade ≥3): 0 Number (%) of patients
TEAE: Decreased appetite (all doses (n=58), grade ≥3): 1 (2) Number (%) of patients
TEAE: Diarrhea (all doses (n=58), grade ≥3): 2 (3) Number (%) of patients
TEAE: Dry eye (all doses (n=58), grade ≥3): 0 Number (%) of patients
TEAE: Dry mouth (all doses (n=58), grade ≥3): 0 Number (%) of patients
TEAE: Dry skin (all doses (n=58), grade ≥3): 0 Number (%) of patients
TEAE: Dysgeusia (all doses (n=58), grade ≥3): 0 Number (%) of patients
TEAE: Dyspnea (all doses (n=58), grade ≥3): 3 (5) Number (%) of patients
TEAE: Edema peripheral (all doses (n=58), grade ≥3): 0 Number (%) of patients
TEAE: Fatigue (all doses (n=58), grade ≥3): 0 Number (%) of patients
TEAE: Hyperphosphatemia (all doses (n=58), grade ≥3): 12 (21) Number (%) of patients
TEAE: Hypertension (all doses (n=58), grade ≥3): 0 Number (%) of patients
TEAE: Hypokalemia (all doses (n=58), grade ≥3): 1 (2) Number (%) of patients
TEAE: Hypomagnesemia (all doses (n=58), grade ≥3): 0 Number (%) of patients
TEAE: Mucosal inflammation (all doses (n=58), grade ≥3): 1 (2) Number (%) of patients
TEAE: Myalgia (all doses (n=58), grade ≥3): 0 Number (%) of patients
TEAE: Nail changes (all doses (n=58), grade ≥3): 0 Number (%) of patients
TEAE: Nausea (all doses (n=58), grade ≥3): 0 Number (%) of patients
TEAE: Stomatitis (all doses (n=58), grade ≥3): 2 (3) Number (%) of patients
TEAE: Vomiting (all doses (n=58), grade ≥3): 0 Number (%) of patients
Patients in whom adverse events required dose modifications (all doses, n=58): 52%
Patients requiring dose modifications due to AEs (all doses, n=58): 30 (52%) patients (%)
Patients with dose modifications due to asymptomatic hyperphosphatemia (all doses, n=58): 22%
Patients reporting blurred vision (at 30–150 mg, mainly grade 1): 6 patients
Recommended phase 2 dose (RP2D) (dose reduction to 60 mg/day in case of intolerable toxicity): 80 mg/daily
Maximum tolerated dose (doses up to 150 mg/day once daily, 3+3+3 design): not formally reached
Patients with DLTs (first 4 weeks, at three dose levels, 58 treated at 10 to 150 mg/day): Five
Number of DLTs (first 4 weeks, dry mouth/eyes, hyperamylasemia, hypercalcemia, hyperbilirubinemia, hyperphosphatemia, stomatitis): 6 DLTs
SAEs deemed possibly study drug related (DLTs) (hyperamylasemia (80 mg), stomatitis (110 mg)): two
Maximum severity of dermatological toxicity / nail changes (in vivo): ≤ 2 grade
Patients with QTc prolongations of grade 1 or 2 (in vivo): Three
Patients with nail changes requiring dose adjustment (in vivo): 3 patients
Drug-related deaths (n=58): no death was considered drug-related
Number of SAEs (n=58): 39 SAEs
Patients experiencing SAEs (n=58): 20 patients
Patients who died from disease progression (n=58): 21 patients
Patients with highest TEAE severity grade 1 (n=58): 4 (7%) patients (%)
Patients with highest TEAE severity grade 2 (n=58): 17 (29%) patients (%)
Patients with highest TEAE severity grade 3 (n=58): 28 (48%) patients (%)
Patients with highest TEAE severity grade 4 (n=58): 2 (3%) patients (%)
Patients with highest TEAE severity grade 5 (n=58): 7 (12%) patients (%)
Dose up to which tolerability was acceptable (oral once daily): up to 80 mg/day
Lowest dose at which serum phosphate increases occurred (typically between 1st and 3rd week of dosing): 20 mg
Dose reduction required (up to 40 mg): no dose reduction was required
